The values that follow are results of earlier work, collected in US10654880B2, “Methods for preparation of glycosphingolipids and uses thereof” (priority 2011, dated 2020).

The subject of this data set is breast cancer tumors (4T1 cell line). To be noted: breast cancer-bearing mice (4T1), relative to untreated group.

On to `CCCCCCCCCCCCCCCCCCCCCCCCCC(=O)N[C@@H](CO[C@H]1O[C@H](CO)[C@H](O)[C@H](O)[C@H]1O)[C@H](O)[C@H](O)CCCCCCCCCCCCCC` [α-GalCer, alpha-galactosylceramide], for which the “inhibition of tumor growth rate” value was 50%.
